Tested on: SEM cells
Assay: cell viability relative to DMSO control; higher = less cytotoxic
Details: 48 h
Outline: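 NOMO1 or SEM cells were plated at 500 cells/well and P12-Ichikawa cells at 1000 cells/well in 1536-well plates (5 μl), after each leukemia line had been adapted for at least four passages in each medium. Pin dosing delivered library compounds in DMSO at 11 threefold concentrations, 47 μM to 0.79 nM. CellTiter-Glo One luminescence was read after 48 h at 37°C. Viability is reported as a per-plate percentage of DMSO wells, with cell-free wells as background.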

[1] = HPLM + 10% dialyzed FBS, 0.000781 µM
[2] = HPLM + 10% dialyzed FBS, 0.00234 µM
[3] = HPLM + 10% dialyzed FBS, 0.00702 µM
[4] = HPLM + 10% dialyzed FBS, 0.0211 µM
[5] = HPLM + 10% dialyzed FBS, 0.0632 µM
[6] = HPLM + 10% dialyzed FBS, 0.19 µM
[7] = HPLM + 10% dialyzed FBS, 0.569 µM
[8] = HPLM + 10% dialyzed FBS, 1.71 µM
[9] = HPLM + 10% dialyzed FBS, 5.12 µM
[10] = HPLM + 10% dialyzed FBS, 15.4 µM
[11] = HPLM + 10% dialyzed FBS, 46.1 µM
[12] = RPMI 5 mM glucose + 10% FBS, 0.000781 µM
[13] = RPMI 5 mM glucose + 10% FBS, 0.00234 µM
[14] = RPMI 5 mM glucose + 10% FBS, 0.00702 µM
[15] = RPMI 5 mM glucose + 10% FBS, 0.0211 µM
[16] = RPMI 5 mM glucose + 10% FBS, 0.0632 µM
[17] = RPMI 5 mM glucose + 10% FBS, 0.19 µM
[18] = RPMI 5 mM glucose + 10% FBS, 0.569 µM
[19] = RPMI 5 mM glucose + 10% FBS, 1.71 µM
[20] = RPMI 5 mM glucose + 10% FBS, 5.12 µM
[21] = RPMI 5 mM glucose + 10% FBS, 15.4 µM
[22] = RPMI 5 mM glucose + 10% FBS, 46.1 µM
[23] = RPMI 5 mM glucose + 10% dialyzed FBS, 0.000781 µM
[24] = RPMI 5 mM glucose + 10% dialyzed FBS, 0.00234 µM
[25] = RPMI 5 mM glucose + 10% dialyzed FBS, 0.00702 µM
[26] = RPMI 5 mM glucose + 10% dialyzed FBS, 0.0211 µM
[27] = RPMI 5 mM glucose + 10% dialyzed FBS, 0.0632 µM
[28] = RPMI 5 mM glucose + 10% dialyzed FBS, 0.19 µM
[29] = RPMI 5 mM glucose + 10% dialyzed FBS, 0.569 µM
[30] = RPMI 5 mM glucose + 10% dialyzed FBS, 1.71 µM
[31] = RPMI 5 mM glucose + 10% dialyzed FBS, 5.12 µM
[32] = RPMI 5 mM glucose + 10% dialyzed FBS, 15.4 µM
[33] = RPMI 5 mM glucose + 10% dialyzed FBS, 46.1 µM

Structure (SMILES)	cell viability [1] [%]	cell viability [2] [%]	cell viability [3] [%]	cell viability [4] [%]	cell viability [5] [%]	cell viability [6] [%]	cell viability [7] [%]	cell viability [8] [%]	cell viability [9] [%]	cell viability [10] [%]	cell viability [11] [%]	cell viability [12] [%]	cell viability [13] [%]	cell viability [14] [%]	cell viability [15] [%]	cell viability [16] [%]	cell viability [17] [%]	cell viability [18] [%]	cell viability [19] [%]	cell viability [20] [%]	cell viability [21] [%]	cell viability [22] [%]	cell viability [23] [%]	cell viability [24] [%]	cell viability [25] [%]	cell viability [26] [%]	cell viability [27] [%]	cell viability [28] [%]	cell viability [29] [%]	cell viability [30] [%]	cell viability [31] [%]	cell viability [32] [%]	cell viability [33] [%]
[NH2][Pt]([NH2])([Cl])[Cl]	93.8	96	94.5	95.2	107	99.4	92.2	89.6	79.1	70.9	62.1	82.9	105	101	93.2	102	98.8	118	71	70.9	65.1	52.4	85	85.3	88.1	89.5	86.8	97.8	88.1	74.3	65.9	55.3	51.8
C[N+]1(C)[C@@H]2C[C@@H](OC(=O)[C@H](CO)c3ccccc3)C[C@H]1[C@@H]1O[C@@H]12.[Br-]	85	94.6	96.1	93.9	105	102	110	117	103	114	102	92.3	90.4	102	95.1	100	92	107	112	105	93.3	89.5	77.3	87.2	109	98.6	105	107	112	105	121	103	101
C=CC1=C(C(=O)O)N2C(=O)[C@@H](NC(=O)/C(=N\O)c3csc(N)n3)[C@H]2SC1	80.6	81.9	20.4	86.1	87.3	98.9	89.8	91.1	83.1	93.4	95.7	87.5	107	10.3	104	96.7	109	102	108	121	98.7	106	83.1	86.6	27.4	108	94.5	107	97.1	101	116	112	101
CC1=C(C=CC=C1)N2\C(=N/C3=C(C(=CC=C3)C)C2=O)C[N]4N=CC5=C4N=CN=C5N	99.5	117	119	128	124	128	121	123	125	117	121	100	124	141	113	113	136	135	135	124	131	119											
CCOc1cc(N)c(Cl)cc1C(=O)NCC1CN(Cc2ccc(F)cc2)CCO1 (centres undefined)	85.4	110	104	100	109	112	128	114	118	119	132	99.8	113	107	116	114	114	95.5	115	109	94.7	90.3	113	110	100	109	119	122	112	115	105	104	92.5
CC\1=C(C(=O)N(\C=C1)C2=CC=C(C=C2)C3=NC=CO3)/C4=CC5=CN=C(N)N=C5C=C4	96.2	95	109	99.8	100	103	76.2	84	40.8	36	27	87.3	115	127	121	108	111	97.4	101	38.5	29.5	21.3	90	104	118	102	97.1	97.4	68.9	72.1	26.1	20.4	19.1
N=C(N)NC(=O)c1nc(Cl)c(N)nc1N	101	104	120	111	114	104	136	114	129	124	123	101	107	108	108	118	119	117	113	113	114	120	101	122	110	108	126	124	120	126	119	116	121
CCN(CC)CCCCNc1nc2cc(Cl)c(Cl)cc2nc1-c1ccc(-c2cccs2)s1	83.7	110	27.8	121	110	102	115	114	107	124	8.47	93.7	94.9	8.03	101	96.8	102	114	98.9	107	93.9	5.71	106	121	26.4	130	118	126	116	116	126	131	8.47
CN(C)C(=O)c1ccc([S+](=O)([O-])c2ccc(NC(=O)[C@@](C)(O)C(F)(F)F)c(Cl)c2)cc1	98.1	105	104	112	110	104	129	120	118	116	80	95.3	122	110	109	124	108	112	123	120	24.3	4.66	99.3	98.8	108	102	107	88	103	111	111	72.8	20.9
CCCCNc1cc(C(=O)O)cc([S+](N)(=O)[O-])c1Oc1ccccc1	80.3	97.7	100	101	103	95.8	99.9	107	115	116	118	111	110	117	114	111	109	107	112	116	141	111	108	110	109	113	115	126	107	123	135	120	128
Oc1ccc(C2CCN(c3ccnc4ccccc34)CC2)cc1O	55.8	98.9	88.8	93.5	118	94.1	95.4	89.5	76.6	56.3	30.7	56.9	98	93.6	94.6	106	116	96.7	83	62.3	43.9	13.6	54.9	92.2	97.3	114	114	115	88.7	96.2	59.1	45.9	39.2
O=C1C[C@@H](c2ccc(O)cc2)Oc2cc(O)cc(O)c21	123	115	122	119	119	118	125	110	116	120	106	102	91.4	79.3	83.3	91.7	83	64.5	77.7	67.2	80.4	64	124	116	130	123	124	114	122	115	121	139	88.5
Cc1cccc(-c2nn(C(=S)Nc3ccccc3)cc2-c2ccnc3ccccc23)n1												117	124	139	131	152	130	121	126	110	118	42.2											
CC[C@H]1/C=C\C=C/C[C@@H](C)[C@H](O)[C@@](C)(O)C(=O)[C@@H](C)[C@H](O)[C@@H](C)C(=O)[C@@H](C)[C@H](O)[C@@H](C)/C=C/C(=O)O[C@@H]2[C@H](C)[C@H](CC1)O[C@]1(CC[C@H](C)[C@H](C[C@@H](C)O)O1)[C@H]2C	78.7	94.1	105	84.3	86.4	98.6	95.5	63.4	40.9	56.5	7.57	81.1	93.9	92.5	81.2	90.3	105	97.7	58.2	28.8	34.6	7.26	90.9	97	89	97.4	85.8	94.2	100	54.7	43.2	36.4	8.78

From the supplement of paper PMC11451515
